The target of experiment [1] is T1, Acyl-CoA:cholesterol acyltransferase (Oryctolagus cuniculus, UniProt Q95214).
T1 sequence (Q95214 whole entry): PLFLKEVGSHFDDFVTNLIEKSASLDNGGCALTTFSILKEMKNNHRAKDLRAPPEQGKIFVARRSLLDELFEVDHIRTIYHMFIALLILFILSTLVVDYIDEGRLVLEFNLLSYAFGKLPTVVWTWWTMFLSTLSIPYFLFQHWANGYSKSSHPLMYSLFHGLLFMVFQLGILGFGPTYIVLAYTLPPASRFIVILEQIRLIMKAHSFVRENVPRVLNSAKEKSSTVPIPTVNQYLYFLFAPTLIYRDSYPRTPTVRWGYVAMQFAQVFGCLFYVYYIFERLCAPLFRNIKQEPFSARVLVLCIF
The experiment is described as follows: Compound was evaluated for inhibitory activity against Acyl coenzyme A:cholesterol acyltransferase in microsomes from rabbit adrenal.

For experiment [2], the target named is T1, Acyl-CoA:cholesterol acyltransferase. The experiment is described as follows: Compound was evaluated for inhibitory activity against Acyl coenzyme A:cholesterol acyltransferase in microsomes from rabbit artery.
Experiment [3] shares this target. The experiment is described as follows: Compound was evaluated for inhibitory activity against Acyl coenzyme A:cholesterol acyltransferase in microsomes from rabbit intestine.
The target is the same in experiment [4]. The experiment is described as follows: Compound was evaluated for inhibitory activity against Acyl coenzyme A:cholesterol acyltransferase in microsomes from rabbit liver.

The IC50 is the concentration that inhibits the measured activity by half. Higher therefore signals weaker potency in that assay.

Consider `Cc1cc(C)n(CCCCC[S+]([O-])c2nc(-c3ccccc3)c(-c3ccccc3)[nH]2)n1` (centres undefined), for which the IC50 in experiment [1] was 208 nM; in experiment [2] it was 245 nM; in experiment [3], 370 nM; in experiment [4] it was 122 nM.

The values are drawn from ChEMBL document CHEMBL1152120, “RP 73163: A bioavailable alkylsulphinyl-diphenylimidazole ACAT inhibitor” (Bioorg Med Chem Lett, 1996).
